Measured values from ChEMBL document CHEMBL4396950, “A rational search for discovering potential neutraligands of human complement fragment 5a (hC5a)” (Bioorg Med Chem, 2019).
Activity calls are given as the source filed them. The calls are words filed in the database; no cut-off is given here.

Tests used:
Complement C5 [1] = biological target: T1, Complement C5 (Homo sapiens, UniProt P01031); test: Binding affinity to recombinant human C5a assessed as conformational change at 1 to 100 uM incubated for 1 hr at 4degC by circular dichroism analysis
Complement C5 [2] = biological target: T1, Complement C5; test: Binding affinity to recombinant human C5a assessed as conformational change =< 1 uM at 4 degC incubated for 1 hr by circular dichroism analysis
Complement C5 [3] = biological target: T1, Complement C5; test: Binding affinity to recombinant human C5a assessed as loss of super secondary structure at > 10 uM incubated for 1 hr at 4 degC by circular dichroism analysis
Complement C5 [4] = biological target: T1, Complement C5; test: Binding affinity to human C5a assessed as dissociation constant after 1 hr by circular dichroism analysis
Complement C5 [5] = biological target: T1, Complement C5; test: Binding affinity to human C5a assessed as loss of secondary structure by measuring red shift in absorption maxima at 10 to 100 uM by fluorescence analysis
Complement C5 [6] = biological target: T1, Complement C5; test: Binding affinity to human C5a assessed as Potassium iodide-induced quenching by measuring Stern-Volmer quenching constant at 1 uM by fluorescence analysis
Complement C5 [7] = biological target: T1, Complement C5; test: Induction of human recombinant C5a unfolding by circular dichroism analysis
Complement C5 [8] = biological target: T1, Complement C5; test: Induction of human recombinant C5a destabilization assessed as protein structure helicity up to 10 uM by circular dichroism analysis
Complement C5 [9] = biological target: T1, Complement C5; test: Binding affinity to human C5a assessed as induction of conformational change with no shift in absorption maxima at 1 uM by fluorescence analysis
Complement C5 [10] = biological target: T1, Complement C5; test: Induction of recombinant human C5a destabilization assessed as intrinsically disordered structure at 2 to 8 M by circular dichroism analysis
Complement C5 [11] = biological target: T1, Complement C5; test: Induction of recombinant human C5a destabilization assessed as intrinsically disordered structure at 8 M incubated for 1 hr by fluorescence analysis
Complement C5 [12] = biological target: T1, Complement C5; test: Induction of recombinant human C5a destabilization assessed as intrinsically disordered structure at 8 M incubated for overnight by fluorescence analysis
Complement C5 [13] = biological target: T1, Complement C5; test: Induction of recombinant human C5a destabilization assessed as intrinsically disordered structure at 2 to 4 M by circular dichroism analysis
Complement C5 [14] = biological target: T1, Complement C5; test: Induction of recombinant human C5a destabilization assessed as protein unfolding at 6 M by circular dichroism analysis
Complement C5 [15] = biological target: T1, Complement C5; test: Induction of recombinant human C5a destabilization assessed as protein unfolding at 6 M after 1 hr by fluorescence analysis
Complement C5 [16] = biological target: T1, Complement C5; test: Induction of recombinant human C5a destabilization assessed as protein unfolding at 6 M incubated for overnight by fluorescence analysis

With `CC1=C(CC(=O)O)c2cc(F)ccc2/C1=C\c1ccc([S+](C)[O-])cc1` (stereo not drawn) the Activity (Complement C5 [1]) was “Active”, the Activity (Complement C5 [2]) was “Active” and the Activity (Complement C5 [3]) was “Active”. The Kd (Complement C5 [4]) was 0.57 µM, the Activity (Complement C5 [5]) was “Active” and the KSV (Complement C5 [6]) was 2.5 M⁻¹. For the same compound, the Activity (Complement C5 [7]) was “Active”, the Activity (Complement C5 [8]) was 5% and the Activity (Complement C5 [9]) was “Active”.
In the case of `O=C(c1ccc(OCCN2CCCCC2)cc1)c1c(-c2ccc(O)cc2)sc2cc(O)ccc12` [RALOXIFENE], the Kd (Complement C5 [4]) is reported as 0.71 µM and the KSV (Complement C5 [6]) is reported as 1.1 M⁻¹.
With `NC(N)=O` the Activity (Complement C5 [10]) was “Active”, the Activity (Complement C5 [11]) was “Active” and the Activity (Complement C5 [12]) was “Active”.
With `CC(C(=O)O)c1ccc2c(c1)[nH]c1ccc(Cl)cc12` (stereo not drawn) [CARPROFEN] the Kd (Complement C5 [4]) was 0.58 µM and the KSV (Complement C5 [6]) was 2.6 M⁻¹.
In the case of `CC(=O)N[C@@H](Cc1c[nH]c2ccccc12)C(N)=O`, the KSV (Complement C5 [6]) is reported as 12.4 M⁻¹.
`N=C(N)N` was tested, and the Activity (Complement C5 [13]) was “Active”, the Activity (Complement C5 [14]) was “Active” and the Activity (Complement C5 [15]) was “Active”. The Activity (Complement C5 [16]) was “Active”.
With `O=C(O)CCc1nc(-c2ccccc2)c(-c2ccccc2)o1` [OXAPROZIN] the Kd (Complement C5 [4]) was 0.64 µM and the KSV (Complement C5 [6]) was 4.3 M⁻¹.
